The source of these data is patent publication US12306191B2, “Composition for diagnosis of degenerative neurological diseases” (KYUNGPOOK NATIONAL UNIVERSITY INDUSTRY—ACADEMIC COOPERATION …, priority 2018, dated 2025).

In test [1] the test system is APP/PS1 mice. Description: Immunofluorescence of microglia (Iba1) and astrocytes (GFAP) in brain cortex of injected APP/PS1 mice. The class given is in vivo, mouse. Conditions: 7-month-old APP/PS1 mice, i.p. daily 4 weeks, 5 mg/kg N-acetyl sphingosine, 1 mg/kg FTY720, 3 uM S1P; for microglia compared to APP/PS1 mice: FIG. 9a; for astrocytes compared to APP/PS1 mice: FIG. 9b. The procedure:
(§1) After the cerebrum and the hippocampus of a mouse were immobilized, anti-20G10 against amyloid-β (Aβ) 42 (mouse, 1:1000) and anti-G30 against Aβ 40 (rabbit, 1:1000), anti-MAP2 (chicken, 1:2000), anti-Synaptophysin (mouse, 1:100), anti-Synapsin1 (rabbit, 1:500), anti-PSD95 (mouse, 1:100), anti-Iba-1 (rabbit, 1:500), and anti-GFAP (rabbit, 1:500) were incubated together. The sites were analyzed using a confocal laser scanning microscope or an Olympus BX51 microscope equipped with Fluoview SV1000 imaging software (Olympus FV1000, Japan). Percentages of areas of the stained sites to an area of total tissues were quantified using Metamorph software (Molecular Devices).
(§2) In order to measure neuroinflammatory resolution factor, nerve cells from the mouse's cerebrum were incubated and then treated with 10 nM N-acetyl sphingosine 1 phsosphate (Toronto Research chemicals, C262710) and N-acetyl sphingosine (Sigma, 01912) to prepare CM. For COX2 acetylation analysis, nerve cells were incubated from the mouse's cerebrum and treated with 2uCi [^14C] N-acetyl sphingosine (ARC, ARC1024) and then prepared. In addition, for an in vivo experiment, 5 mg/kg N-acetyl sphingosine (Sigma, 01912), 1 mg/kg FTY720, and 3 uM S1P were injected into 7-month-old APP/PS1 mice daily for 4 weeks through intraperitoneal injection.
The present inventors confirmed AD lesions by injecting N-acetyl sphingosine, one of COX2 acetylating agents identified through the above experiment, into an APP/PS1 animal model. First, in order to determine an effect of N-acetyl sphingosine on neuroinflammatory response by secreting the neuroinflammatory resolution factor, changes in microglia and astrocytes were observed. […] However, when sphingosine derivatives FTY720 and S1P were injected, there was no difference in the activity of microglia and astrocytes compared to the Alzheimer's animal model, and there was no effect of reducing Aβ deposition and improving memory (FIGS. 9a and 9b).

Another test has as its system APP/PS1 nerve cells. The experiment in a line: Secretion of neuroinflammatory resolution factor in APP/PS1 nerve cells treated with COX2 acetylating agent. Conditions: 10 nM, FIG. 8b. The class given is cell-based, mouse. The method, then:
A commercially available ELISA kit (Biosource) was used, and the hemispheres of mice were homogenized and added in a buffer containing 0.02 M of guanidine to prepare a sample for Aβ ELISA. In order to measure neuroinflammatory resolution factor, nerve cells from the mouse cerebrum were incubated to prepare conditioned media (CM). Thereafter, according to the manufacturer's manual, ELISA for Aβ and SPM was performed.
as §2
First, in order to confirm whether the selected compounds promote the secretion of neuroinflammatory resolution factor in nerve cells, APP/PS1 nerve cells were treated with N-acetyl sphingosine 1 phsosphate or N-acetyl sphingosine, and then the expression levels of the neuroinflammatory resolution factor were confirmed. As a result, it was confirmed that the expression levels of LxA4 and RvE1 in nerve cells of APP/PS1 mice were recovered when treated with N-acetyl sphingosine 1 phsosphate or N-acetyl sphingosine (FIG. 8b).

Test [2] relates to APP/PS1 mice. Description: Morris Water Maze test of injected APP/PS1 mice. The class given is in vivo, mouse. Conditions: 7-month-old APP/PS1 mice, i.p. daily 4 weeks; 5 mg/kg N-acetyl sphingosine, 1 mg/kg FTY720, 3 uM S1P; FIG. 9d. The procedure:
In order to confirm potential effects on learning and memory, Morris water maze (MWM) and fear conditioning tests were performed. In the MWM, the mouse learned a task 4 times a day for 10 days, a platform was removed on day 11, and a probe trial was performed. In the fear conditioning, on day 1, the mouse was added in a conditioning chamber, and sound stimulation (10 kHz, 70 dB) and electrical stimulation (0.3 mA, 1 s) were applied. On day 2, the memory on a space was confirmed without stimulation in the same conditioning chamber as day 1, and on day 3, a memory test for fear was performed when only the sound stimulation was applied in another conditioning chamber. An open field test was performed to evaluate motor ability and immediate activity. In the open field test, the mouse was placed in a quadrangular box for 10 minutes and then overall motor ability and time and distances were measured.
In order to measure neuroinflammatory resolution factor, nerve cells from the mouse's cerebrum were incubated and then treated with 10 nM N-acetyl sphingosine 1 phsosphate (Toronto Research chemicals, C262710) and N-acetyl sphingosine (Sigma, 01912) to prepare CM. For COX2 acetylation analysis, nerve cells were incubated from the mouse's cerebrum and treated with 2uCi [^14C] N-acetyl sphingosine (ARC, ARC1024) and then prepared. […]

In test [3] the target is T1, COX2 (Homo sapiens, UniProt P35354).
T1 sequence (P35354 18-604): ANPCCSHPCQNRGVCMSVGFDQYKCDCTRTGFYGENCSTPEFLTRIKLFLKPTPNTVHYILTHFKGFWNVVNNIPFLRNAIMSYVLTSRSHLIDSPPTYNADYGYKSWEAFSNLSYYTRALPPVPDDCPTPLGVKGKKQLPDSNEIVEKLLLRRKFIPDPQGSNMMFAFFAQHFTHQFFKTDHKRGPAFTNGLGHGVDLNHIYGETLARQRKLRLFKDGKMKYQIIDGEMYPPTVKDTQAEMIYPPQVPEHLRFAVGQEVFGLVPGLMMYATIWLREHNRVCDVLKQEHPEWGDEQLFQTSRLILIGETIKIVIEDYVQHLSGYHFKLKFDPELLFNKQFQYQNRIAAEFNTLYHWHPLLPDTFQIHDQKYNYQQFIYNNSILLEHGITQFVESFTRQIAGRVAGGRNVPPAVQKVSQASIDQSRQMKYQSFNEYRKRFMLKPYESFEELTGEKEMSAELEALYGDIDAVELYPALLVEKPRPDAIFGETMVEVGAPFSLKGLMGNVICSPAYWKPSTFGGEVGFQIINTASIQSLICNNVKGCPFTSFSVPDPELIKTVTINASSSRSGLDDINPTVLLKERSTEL
Description: LC-MS/MS identification of the acetylation site of COX2. In kind it is biochemical. Conditions: FIG. 8d. The procedure:
To confirm an acetylation site of COX2, a COX2 enzyme was precipitated with trichroloacetic acid (Merck) and dried. The dried extract was resuspended in 10 μL of a 5 M urea solution, and a 0.1 M ammonium bicarbonate buffer was incubated at 37° C. with 1 μg trypsin (Promega) for 16 hours. Thereafter, the sample was treated with 1 M DTT (GE Healthcare) at room temperature for 1 hour and then alkylated with 1M iodoacetamide (Sigma) for 1 hour. A protein sample was loaded onto a ZORBAX 300SB-C18 column for sequencing. Peptides were identified with BioTools 3.2 SR5 (Bruker Daltonics).
In addition, it was confirmed that serine 565 (S565) for a peptide 560-[…]-575 of COX2 was acetylated in the presence of N-acetyl sphingosine (FIG. 8d).

The subject of test [4] is APP/PS1 mice. Description: Thioflavin S staining of Aβ plaques in brain of injected APP/PS1 mice. The settings on record: 7-month-old APP/PS1 mice, i.p. daily 4 weeks; 5 mg/kg N-acetyl sphingosine, 1 mg/kg FTY720, 3 uM S1P; FIG. 9c. In kind it is in vivo, mouse. The procedure:
as §1
as §2, with “injection. […]” for “injection.”

Test [5] has as its target T1, COX2. The experiment in a line: Western blot of recombinant COX2 protein with ac-S565 antibody after aspirin or N-AS treatment. The class given is biochemical. Conditions: FIG. 10. The method, then: (§3) In addition, a Western blot sample was prepared by reacting a recombinant COX2 protein with aspirin and N-acetyl sphingosine (Sigma, 01912, N-AS). In addition, microglia were isolated from the cerebra of wild-type and APP/PS1 9-month-old mice to prepare a Western blot sample, and microglia (Applied Biologics Materials, USA) were incubated with amyloid beta, and then a Western blot sample was prepared. The prepared Western blot sample was subjected to electrophoresis on a polyacrylamide gel to isolate proteins, transferred to a nitrocellulose filter, and then bound with anti-ac-S565 (rabbit, 1:500), anti-COX2 (rabbit, 1:1,000, Abcam), and anti-actin (mouse, 1:1,000, Santa Cruz) antibodies, and then bands were shaped using secondary antibodies, and quantified and analyzed using ImageJ (National Institutes of Health, USA).
(In general: Immunoblotting shows a protein as a band on a membrane.)

Test [6] has as its system COX2. The experiment in a line: COX2 acetylation analysis with [14C] N-acetyl sphingosine. The class given is cell-based, mouse. Conditions: 2uCi [14C] N-acetyl sphingosine; FIG. 8c. The method, then: as §2
A further test concerns the target SphK1 (Homo sapiens, UniProt Q9NYA1). The settings on record: read-out: KM of acetyl group binding to SphK1; in the presence of 10 mM sphingosine; FIG. 1a.
Test [7] relates to human-derived microglia. The experiment in a line: Western blotting of COX2 and ac-S565 in human-derived microglia treated with amyloid beta. In kind it is cell-based. The settings on record: FIGS. 14a, 14b. The procedure: as §3
The present inventors created a neuroinflammatory environment by treating human-derived microglia with amyloid beta, and then reconfirmed the level of S565 acetylation of COX2 through Western blotting.

Test [8] deals with human-derived microglia. The experiment in a line: Fluorescence immunostaining of COX2 and ac-S565 in human-derived microglia treated with amyloid beta. The class given is cell-based. The settings on record: FIGS. 13a, 13b. The method, then:
In addition, cerebral tissues of wild-type and APP/PS1 9-month-old mice and human-derived microglia were incubated together with anti-ac-S565 (rabbit, 1:100), anti-COX2 (mouse, 1:500, Thermo Fisher Scientific), and anti-Iba1 (goat, 1:500, Abcam). In the cerebral tissues and the human-derived microglia, percentages of cells stained with anti-ac-S565, anti-COX2 and anti-Iba1 among cells stained with anti-COX2 and anti-Iba1 were quantified and analyzed using MetaMorph (Molecular Devices, USA).
The present inventors created a neuroinflammatory environment by treating human-derived microglia with amyloid beta, and then confirmed the level of S565 acetylation of COX2 through fluorescence immunostaining.

Chain of SphK1 (Q9NYA1 whole entry, species assumed): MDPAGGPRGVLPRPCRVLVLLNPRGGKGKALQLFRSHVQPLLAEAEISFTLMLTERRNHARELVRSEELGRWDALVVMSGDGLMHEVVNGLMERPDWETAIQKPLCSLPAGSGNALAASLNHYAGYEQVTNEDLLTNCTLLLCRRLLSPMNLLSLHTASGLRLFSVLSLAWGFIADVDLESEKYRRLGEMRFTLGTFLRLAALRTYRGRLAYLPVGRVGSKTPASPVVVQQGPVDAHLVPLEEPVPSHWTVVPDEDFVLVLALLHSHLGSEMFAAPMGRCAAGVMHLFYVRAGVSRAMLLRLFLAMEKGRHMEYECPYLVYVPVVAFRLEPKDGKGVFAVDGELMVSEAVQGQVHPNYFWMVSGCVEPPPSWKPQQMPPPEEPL

As for `CCCCCCCCc1ccc(CCC(N)(CO)CO)cc1` [FTY720], in the test on APP/PS1 mice [1], the “microglia compared to APP/PS1 mice” value is “no difference” and the “astrocytes compared to APP/PS1 mice” value is recorded as “no difference”.

`CCCCCCCCCCCCC/C=C/[C@@H](O)[C@H](COP(=O)(O)O)NC(C)=O` [N-acetyl sphingosine 1 phsosphate]: in the test on APP/PS1 nerve cells, the “expression level of LxA4” value is “recovered” and the “expression level of RvE1” value is “recovered”.

For `CCCCCCCCCCCCC/C=C/[C@@H](O)[C@H](CO)NC(C)=O` [N-acetyl sphingosine], the memory and cognition entry in the test on APP/PS1 mice [2] is “improved”. Moreover, in the test on APP/PS1 mice [1], the “microglia compared to APP/PS1 mice” value was “remarkable decrease” and the “astrocytes compared to APP/PS1 mice” value is “remarkable decrease”. Moreover, in the test with APP/PS1 nerve cells, the “expression level of LxA4” value is “recovered” and the “expression level of RvE1” value is given as “recovered”. Moreover, at COX2 [3], the “acetylation of serine 565 (S565) of COX2 peptide 560-575” value is listed as “acetylated”. Also, the “amount of Aβ / Aβ deposition compared to APP/PS1 mice” value with APP/PS1 mice [4] is recorded as “significantly lowered”. The “ac-S565 band of treated COX2 in Western blot (S565 acetylation)” value on COX2 [5] is listed as “strongly shown”. The “COX2 acetylation compared with sample mixed with SphK1, acetyl-CoA and sphingosine” value with COX2 [6] was “more acetylation”.

On to `CCCCCCCCCCCCC/C=C/[C@@H](O)[C@@H](N)COP(=O)(O)O` [S1P, sphingosine-1-phosphate], for which the memory and cognition result with APP/PS1 mice [2] is “no effect”. Besides, in the test on APP/PS1 mice [1], the “microglia compared to APP/PS1 mice” value is on record as “no difference” and the “astrocytes compared to APP/PS1 mice” value was “no difference”. The “amount of Aβ / Aβ deposition compared to APP/PS1 mice” value in the test with APP/PS1 mice [4] was “no effect”.

`CC(=O)SCCNC(=O)CCNC(=O)[C@H](O)C(C)(C)COP(=O)(O)OP(=O)(O)OC[C@H]1O[C@@H](n2cnc3c(N)ncnc32)[C@H](O)[C@@H]1OP(=O)(O)O` [acetyl-CoA]: at SphK1, the Km is 58.2 µM.

Regarding `CC(=O)Oc1ccccc1C(=O)O` [aspirin], the “ac-S565 band of treated COX2 in Western blot (S565 acetylation)” value at COX2 [5] is listed as “hardly detected”.

As for “amyloid beta: amyloid beta used to treat human-derived microglia to create a neuroinflammatory environment”, in the test on human-derived microglia [7], the “S565 acetylation of COX2 in microglia” value was “decreased” and the “expression of COX2 in microglia” value is given as “increased”. Further, in the test on human-derived microglia [8], the “S565 acetylation of COX2 in microglia” value is “decreased” and the “expression of COX2 in microglia” value is “increased”.

The term Km denotes the concentration of substrate that gives half-maximal velocity.
